# Measurements reported in PMC9455146, “Effects of Novel Photosynthetic Inhibitor [CuL2]Br2 Complex on Photosystem II Activity in Spinach” (Cells, 2022).
# Molecular target: T1, D1-protein of the PSII reaction center (QB-plastoquinone-herbicide-binding protein) (Spinacia oleracea, UniProt P69560)
# T1 construct: gene psbA; native protein in isolated spinach thylakoids; with photosystem II complex
# Experiment: PSII chlorophyll fluorescence (PAM) in isolated thylakoids; block of Light 1-induced QA- re-oxidation
# Type: biochemical
compound,measurement,value
"CN(C)C(=O)Nc1ccc(Cl)c(Cl)c1 [DCMU, 3-(3,4-dichlorophenyl)-1,1-dimethylurea]",Concentration blocking Light 1-induced QA- re-oxidation,0.5 µM
